From ChEMBL document CHEMBL5120845, “Design and synthesis of novel macrolones bridged with linkers from 11,12-positions of macrolides” (Bioorg Med Chem Lett, 2022)
Converted amounts (≈) assume the structure as drawn.

How the values were obtained:
Format in all cases: functional
Streptococcus pneumoniae [1] = assay: Antibacterial activity against Streptococcus pneumoniae ATCC 49619 by microbroth dilution method
Streptococcus pneumoniae [2] = assay: Antibacterial activity against Streptococcus pneumoniae 07P390 by microbroth dilution method
Streptococcus pneumoniae [3] = assay: Antibacterial activity against Streptococcus pneumoniae PU09 by microbroth dilution method
Streptococcus pyogenes = assay: Antibacterial activity against Streptococcus pyogenes 12-206 by microbroth dilution method
Staphylococcus aureus [4] = assay: Antibacterial activity against Staphylococcus aureus 15B196 by microbroth dilution method
Staphylococcus aureus [5] = assay: Antibacterial activity against Staphylococcus aureus PU32 by microbroth dilution method
Haemophilus influenzae = assay: Antibacterial activity against Haemophilus influenzae ATCC 49247 by microbroth dilution method

Row | Structure (SMILES) | MIC (Streptococcus pneumoniae [1]) [µg/mL] | MIC (Streptococcus pneumoniae [2]) [µg/mL] | MIC (Streptococcus pneumoniae [3]) [µg/mL] | MIC (Streptococcus pyogenes) [µg/mL] | MIC (Staphylococcus aureus [4]) [µg/mL] | MIC (Staphylococcus aureus [5]) [µg/mL] | MIC (Haemophilus influenzae) [µg/mL]
1 | CC[C@H]1OC(=O)[C@H](C)C(=O)[C@H](C)[C@@H](O[C@@H]2O[C@H](C)C[C@H](N(C)C)[C@H]2O)[C@](C)(OC)C[C@@H](C)C(=O)[C@H](C)[C@H]2N(CCCCC#Cc3ccc4c(=O)c(C(=O)O)cn(C5CC5)c4c3)C(=O)O[C@]12C | 0.016 (≈ 0.0174 µM) | 8 (≈ 8.69 µM) | 2 (≈ 2.17 µM) | 2 (≈ 2.17 µM) | 256 (≈ 278 µM) | 2 (≈ 2.17 µM) | 32 (≈ 34.8 µM)
2 | O=C(O)c1cn(C2CC2)c2cc(N3CCNCC3)c(F)cc2c1=O [CIPROFLOXACIN] | 1 (≈ 3.02 µM) | 2 (≈ 6.04 µM) | 2 (≈ 6.04 µM) | 0.25 (≈ 0.754 µM) | 1 (≈ 3.02 µM) | 32 (≈ 96.6 µM) | 0.03 (≈ 0.0905 µM)
3 | CC[C@H]1OC(=O)[C@H](C)C(=O)[C@H](C)[C@@H](O[C@@H]2O[C@H](C)C[C@H](N(C)C)[C@H]2O)[C@](C)(OC)C[C@@H](C)C(=O)[C@H](C)[C@H]2N(CCC#Cc3ccc4c(=O)c(C(N)=O)cn(C5CC5)c4c3)C(=O)O[C@]12C | 0.06 (≈ 0.0673 µM) | 128 (≈ 144 µM) | 0.12 (≈ 0.135 µM) | 32 (≈ 35.9 µM) | 512 (≈ 575 µM) | 1 (≈ 1.12 µM) | 128 (≈ 144 µM)
4 | CC[C@H]1OC(=O)[C@H](C)C(=O)[C@H](C)[C@@H](O[C@@H]2O[C@H](C)C[C@H](N(C)C)[C@H]2O)[C@](C)(OC)C[C@@H](C)C(=O)[C@H](C)[C@H]2N(CCCCc3ccc4c(=O)c(C(N)=O)cn(C5CC5)c4c3)C(=O)O[C@]12C | 0.03 (≈ 0.0335 µM) | 32 (≈ 35.8 µM) | 0.25 (≈ 0.279 µM) | 4 (≈ 4.47 µM) | 512 (≈ 572 µM) | 1 (≈ 1.12 µM) | 32 (≈ 35.8 µM)
5 | CC[C@H]1OC(=O)[C@H](C)C(=O)[C@H](C)[C@@H](O[C@@H]2O[C@H](C)C[C@H](N(C)C)[C@H]2O)[C@](C)(OC)C[C@@H](C)C(=O)[C@H](C)[C@H]2N(CCCC#Cc3ccc4c(=O)c(C(N)=O)cn(C5CC5)c4c3)C(=O)O[C@]12C | 0.03 (≈ 0.0331 µM) | 128 (≈ 141 µM) | 2 (≈ 2.21 µM) | 4 (≈ 4.42 µM) | 512 (≈ 566 µM) | 4 (≈ 4.42 µM) | 128 (≈ 141 µM)
6 | CC[C@H]1OC(=O)[C@H](C)C(=O)[C@H](C)[C@@H](O[C@@H]2O[C@H](C)C[C@H](N(C)C)[C@H]2O)[C@](C)(OC)C[C@@H](C)C(=O)[C@H](C)[C@H]2N(CCCCCCC#Cc3ccc4c(=O)c(C(=O)O)cn(C5CC5)c4c3)C(=O)O[C@]12C | ≤ 0.008 | 8 (≈ 8.44 µM) | 1 (≈ 1.05 µM) | 1 (≈ 1.05 µM) | 32 (≈ 33.7 µM) | 4 (≈ 4.22 µM) | 16 (≈ 16.9 µM)
7 | CC[C@H]1OC(=O)[C@H](C)C(=O)[C@H](C)[C@@H](O[C@@H]2O[C@H](C)C[C@H](N(C)C)[C@H]2O)[C@](C)(OC)C[C@@H](C)C(=O)[C@H](C)[C@H]2N(CCC#Cc3ccc4c(c3)c(=O)c(C(N)=O)cn4C3CC3)C(=O)O[C@]12C | ≤ 0.008 | 8 (≈ 8.98 µM) | 1 (≈ 1.12 µM) | 1 (≈ 1.12 µM) | 32 (≈ 35.9 µM) | 1 (≈ 1.12 µM) | 16 (≈ 18 µM)
8 | CC[C@H]1OC(=O)[C@H](C)C(=O)[C@H](C)[C@@H](O[C@@H]2O[C@H](C)C[C@H](N(C)C)[C@H]2O)[C@](C)(OC)C[C@@H](C)C(=O)[C@H](C)[C@H]2N(CCCCCCC#Cc3ccc4c(c3)c(=O)c(C(=O)O)cn4C3CC3)C(=O)O[C@]12C | ≤ 0.008 | 16 (≈ 16.9 µM) | 1 (≈ 1.05 µM) | 1 (≈ 1.05 µM) | 128 (≈ 135 µM) | 4 (≈ 4.22 µM) | 4 (≈ 4.22 µM)
9 | CC[C@H]1OC(=O)[C@H](C)C(=O)[C@H](C)[C@@H](O[C@@H]2O[C@H](C)C[C@H](N(C)C)[C@H]2O)[C@](C)(OC)C[C@@H](C)C(=O)[C@H](C)[C@H]2N(CCCCCC#Cc3ccc4c(c3)c(=O)c(C(N)=O)cn4C3CC3)C(=O)O[C@]12C | 0.016 (≈ 0.0171 µM) | 4 (≈ 4.29 µM) | 1 (≈ 1.07 µM) | 2 (≈ 2.14 µM) | 128 (≈ 137 µM) | 8 (≈ 8.57 µM) | 64 (≈ 68.6 µM)
10 | CC[C@H]1OC(=O)[C@H](C)C(=O)[C@H](C)[C@@H](O[C@@H]2O[C@H](C)C[C@H](N(C)C)[C@H]2O)[C@](C)(OC)C[C@@H](C)C(=O)[C@H](C)[C@H]2N(CCCCC#Cc3ccc4c(c3)c(=O)c(C(=O)O)cn4C3CC3)C(=O)O[C@]12C | 0.016 (≈ 0.0174 µM) | 128 (≈ 139 µM) | 1 (≈ 1.09 µM) | 4 (≈ 4.35 µM) | 256 (≈ 278 µM) | 2 (≈ 2.17 µM) | 32 (≈ 34.8 µM)
11 | CC[C@H]1OC(=O)[C@H](C)[C@@H](O[C@H]2C[C@@](C)(OC)[C@@H](O)[C@H](C)O2)[C@H](C)[C@@H](O[C@@H]2O[C@H](C)C[C@H](N(C)C)[C@H]2O)[C@](C)(OC)C[C@@H](C)C(=O)[C@H](C)[C@@H](O)[C@]1(C)O [CLARITHROMYCIN] | 0.03 (≈ 0.0401 µM) | 512 (≈ 685 µM) | 8 (≈ 10.7 µM) | 512 (≈ 685 µM) | 512 (≈ 685 µM) | 64 (≈ 85.6 µM) | 16 (≈ 21.4 µM)
12 | CC[C@H]1OC(=O)[C@H](C)C(=O)[C@H](C)[C@@H](O[C@@H]2O[C@H](C)C[C@H](N(C)C)[C@H]2O)[C@](C)(OC)C[C@@H](C)C(=O)[C@H](C)[C@H]2N(CCCCCC#Cc3ccc4c(=O)c(C(=O)O)cn(C5CC5)c4c3)C(=O)O[C@]12C | ≤ 0.008 | 16 (≈ 17.1 µM) | 1 (≈ 1.07 µM) | 2 (≈ 2.14 µM) | 128 (≈ 137 µM) | 4 (≈ 4.28 µM) | 16 (≈ 17.1 µM)

Next, values leading:

Row | MIC (Streptococcus pneumoniae [1]) [µg/mL] | MIC (Streptococcus pneumoniae [2]) [µg/mL] | MIC (Streptococcus pneumoniae [3]) [µg/mL] | MIC (Streptococcus pyogenes) [µg/mL] | MIC (Staphylococcus aureus [4]) [µg/mL] | MIC (Staphylococcus aureus [5]) [µg/mL] | MIC (Haemophilus influenzae) [µg/mL] | Structure (SMILES)
13 | 0.03 (≈ 0.0309 µM) | 2 (≈ 2.06 µM) | 2 (≈ 2.06 µM) | 1 (≈ 1.03 µM) | 256 (≈ 264 µM) | 4 (≈ 4.12 µM) | 32 (≈ 33 µM) | CC[C@H]1OC(=O)[C@H](C)C(=O)[C@H](C)[C@@H](O[C@@H]2O[C@H](C)C[C@H](N(C)C)[C@H]2O)[C@](C)(OC)C[C@@H](C)C(=O)[C@H](C)[C@H]2N(CCN3CCN(c4cc5c(cc4F)c(=O)c(C(=O)O)cn5C4CC4)CC3)C(=O)O[C@]12C
14 | 0.016 (≈ 0.0179 µM) | 2 (≈ 2.24 µM) | 0.5 (≈ 0.561 µM) | 1 (≈ 1.12 µM) | 16 (≈ 17.9 µM) | 0.25 (≈ 0.28 µM) | 4 (≈ 4.48 µM) | CC[C@H]1OC(=O)[C@H](C)C(=O)[C@H](C)[C@@H](O[C@@H]2O[C@H](C)C[C@H](N(C)C)[C@H]2O)[C@](C)(OC)C[C@@H](C)C(=O)[C@H](C)[C@H]2N(CCC#Cc3ccc4c(=O)c(C(=O)O)cn(C5CC5)c4c3)C(=O)O[C@]12C
15 | 0.03 (≈ 0.0331 µM) | 2 (≈ 2.21 µM) | 1 (≈ 1.1 µM) | 2 (≈ 2.21 µM) | 256 (≈ 283 µM) | 4 (≈ 4.41 µM) | 32 (≈ 35.3 µM) | CC[C@H]1OC(=O)[C@H](C)C(=O)[C@H](C)[C@@H](O[C@@H]2O[C@H](C)C[C@H](N(C)C)[C@H]2O)[C@](C)(OC)C[C@@H](C)C(=O)[C@H](C)[C@H]2N(CCCC#Cc3ccc4c(=O)c(C(=O)O)cn(C5CC5)c4c3)C(=O)O[C@]12C
16 | ≤ 0.008 | 2 (≈ 2 µM) | 0.5 (≈ 0.501 µM) | 0.5 (≈ 0.501 µM) | 256 (≈ 256 µM) | 2 (≈ 2 µM) | 8 (≈ 8.01 µM) | CC[C@H]1OC(=O)[C@H](C)C(=O)[C@H](C)[C@@H](O[C@@H]2O[C@H](C)C[C@H](N(C)C)[C@H]2O)[C@](C)(OC)C[C@@H](C)C(=O)[C@H](C)[C@H]2N(CCCCN3CCN(c4cc5c(cc4F)c(=O)c(C(=O)O)cn5C4CC4)CC3)C(=O)O[C@]12C
17 | 0.06 (≈ 0.067 µM) | 64 (≈ 71.4 µM) | 4 (≈ 4.46 µM) | 2 (≈ 2.23 µM) | 512 (≈ 571 µM) | 1 (≈ 1.12 µM) | 32 (≈ 35.7 µM) | CC[C@H]1OC(=O)[C@H](C)C(=O)[C@H](C)[C@@H](O[C@@H]2O[C@H](C)C[C@H](N(C)C)[C@H]2O)[C@](C)(OC)C[C@@H](C)C(=O)[C@H](C)[C@H]2N(CCCCc3ccc4c(c3)c(=O)c(C(=O)O)cn4C3CC3)C(=O)O[C@]12C
18 | ≤ 0.008 | 32 (≈ 35.8 µM) | 1 (≈ 1.12 µM) | 2 (≈ 2.24 µM) | 256 (≈ 286 µM) | 0.5 (≈ 0.559 µM) | 8 (≈ 8.95 µM) | CC[C@H]1OC(=O)[C@H](C)C(=O)[C@H](C)[C@@H](O[C@@H]2O[C@H](C)C[C@H](N(C)C)[C@H]2O)[C@](C)(OC)C[C@@H](C)C(=O)[C@H](C)[C@H]2N(CC/C=C\c3ccc4c(c3)c(=O)c(C(=O)O)cn4C3CC3)C(=O)O[C@]12C
19 | 0.25 (≈ 0.25 µM) | 2 (≈ 2 µM) | 2 (≈ 2 µM) | 8 (≈ 8 µM) | 32 (≈ 32 µM) | 8 (≈ 8 µM) | 32 (≈ 32 µM) | CC[C@H]1OC(=O)[C@H](C)C(=O)[C@H](C)[C@@H](O[C@@H]2O[C@H](C)C[C@H](N(C)C)[C@H]2O)[C@](C)(OC)C[C@@H](C)C(=O)[C@H](C)[C@H]2N(CCN3CCN(c4c(F)cc5c(=O)c(C(=O)O)cn(C6CC6)c5c4OC)CC3)C(=O)O[C@]12C
20 | 0.06 (≈ 0.0673 µM) | 256 (≈ 287 µM) | 1 (≈ 1.12 µM) | 4 (≈ 4.48 µM) | 512 (≈ 574 µM) | 2 (≈ 2.24 µM) | 32 (≈ 35.9 µM) | CC[C@H]1OC(=O)[C@H](C)C(=O)[C@H](C)[C@@H](O[C@@H]2O[C@H](C)C[C@H](N(C)C)[C@H]2O)[C@](C)(OC)C[C@@H](C)C(=O)[C@H](C)[C@H]2N(CCC#Cc3ccc4c(c3)c(=O)c(C(=O)O)cn4C3CC3)C(=O)O[C@]12C
21 | 0.12 (≈ 0.122 µM) | 256 (≈ 260 µM) | 2 (≈ 2.03 µM) | 8 (≈ 8.14 µM) | 512 (≈ 521 µM) | 2 (≈ 2.03 µM) | 128 (≈ 130 µM) | CC[C@H]1OC(=O)[C@H](C)C(=O)[C@H](C)[C@@H](O[C@@H]2O[C@H](C)C[C@H](N(C)C)[C@H]2O)[C@](C)(OC)C[C@@H](C)C(=O)[C@H](C)[C@H]2N(CCCN3CCN(c4cc5c(cc4F)c(=O)c(C(N)=O)cn5C4CC4)CC3)C(=O)O[C@]12C
22 | 0.03 (≈ 0.0331 µM) | 128 (≈ 141 µM) | 1 (≈ 1.1 µM) | 2 (≈ 2.21 µM) | 256 (≈ 283 µM) | 4 (≈ 4.41 µM) | 8 (≈ 8.83 µM) | CC[C@H]1OC(=O)[C@H](C)C(=O)[C@H](C)[C@@H](O[C@@H]2O[C@H](C)C[C@H](N(C)C)[C@H]2O)[C@](C)(OC)C[C@@H](C)C(=O)[C@H](C)[C@H]2N(CCCC#Cc3ccc4c(c3)c(=O)c(C(=O)O)cn4C3CC3)C(=O)O[C@]12C
